Experimental data reported in ChEMBL document CHEMBL3044676, “Effect of Antibiotics on Formation of Aerial Mycelium and Production of Phytotoxins in Streptomyces spp” (2003).
Active and inactive are the calls of the source. The calls are words filed in the database; no cut-off is given here.

Columns and labels:
[1] = tested on: Streptomyces acidiscabies; assay: Reduction in concanamycins A and B production in Streptomyces acidiscabies ATCC 4900315 at 1.5 ug/ml after 5 days relative to untreated control; assay type: functional, organism-based
[2] = tested on: Streptomyces acidiscabies; assay: Reduction in thaxtomin A production in Streptomyces acidiscabies ATCC 4900315 at 1.5 ug/ml after 5 days relative to untreated control; assay type: functional; design: scale not given: the % may be the effect or the level left
Streptomyces scabiei [3] = assay: Reduction in concanamycins A and B production in Streptomyces scabiei ATCC 4917314 at 1.2 ug/ml after 5 days relative to untreated control; assay type: functional; design: scale not given: the % may be the effect or the level left
Streptomyces scabiei [4] = assay: Reduction in thaxtomin A production in Streptomyces scabiei ATCC 4917314 at 1.2 ug/ml after 5 days relative to untreated control; assay type: functional; design: scale not given: the % may be the effect or the level left
Streptomyces scabiei [5] = assay: Antimicrobial activity against Streptomyces scabiei ATCC 4917314 assessed as mycelial weigh change at 1.2 ug/ml after 5 days relative to untreated control; assay type: functional
Streptomyces alboniger [6] = assay: Antimicrobial activity against Streptomyces alboniger IFO 12738 assessed as inhibition of aerial mycelial growth at 0.04 ug/disk after 5 days by paper disk method; assay type: functional, organism-based
Streptomyces alboniger [7] = assay: Antimicrobial activity against Streptomyces alboniger IFO 12738 assessed as inhibition of aerial mycelial growth at 0.4 ug/disk after 5 days by paper disk method; assay type: functional
Streptomyces alboniger [8] = assay: Antimicrobial activity against Streptomyces alboniger IFO 12738 assessed as inhibition of aerial mycelial growth at 4 ug/disk after 5 days by paper disk method; assay type: functional
[9] = tested on: Streptomyces acidiscabies; assay: Antimicrobial activity against Streptomyces acidiscabies ATCC 4900315 assessed as mycelial weigh change at 1.5 ug/ml after 5 days relative to untreated control; assay type: functional
[10] = tested on: Streptomyces acidiscabies; assay: Antimicrobial activity against Streptomyces acidiscabies ATCC 4900315 assessed as inhibition of growth at 4 ug/disk after 5 days by paper disk method; assay type: functional; conditions: ATCC 4900315, 120 h, read-out: DIZ
[11] = tested on: Streptomyces acidiscabies; assay: Antimicrobial activity against Streptomyces acidiscabies ATCC 4900315 assessed as inhibition of aerial mycelial growth at 0.4 ug/disk after 5 days by paper disk method; assay type: functional; conditions: for zone of inhibition at 0.4 µg/disc: ATCC 4900315, 120 h, read-out: DIZ
[12] = tested on: Streptomyces acidiscabies; assay: Antimicrobial activity against Streptomyces acidiscabies ATCC 4900315 assessed as inhibition of aerial mycelial growth at 0.04 ug/disk after 5 days by paper disk method; assay type: functional
[13] = tested on: Streptomyces acidiscabies; assay: Antimicrobial activity against Streptomyces acidiscabies ATCC 4900315 assessed as inhibition of aerial mycelial growth at 4 ug/disk after 5 days by paper disk method; assay type: functional; conditions: for zone of inhibition at 4 µg/disc: ATCC 4900315, 120 h, read-out: DIZ
Streptomyces scabiei [14] = assay: Antimicrobial activity against Streptomyces scabiei ATCC 4917314 assessed as inhibition of aerial mycelial growth at 0.04 ug/disk after 5 days by paper disk method; assay type: functional; conditions: for zone of inhibition at 0.04 µg/disc: ATCC 4917314, 120 h, read-out: DIZ
Streptomyces scabiei [15] = assay: Antimicrobial activity against Streptomyces scabiei ATCC 4917314 assessed as inhibition of growth at 4 ug/disk after 5 days by paper disk method; assay type: functional; conditions: ATCC 4917314, 120 h, read-out: DIZ
Streptomyces scabiei [16] = assay: Antimicrobial activity against Streptomyces scabiei ATCC 4917314 assessed as inhibition of aerial mycelial growth at 4 ug/disk after 5 days by paper disk method; assay type: functional; conditions: for zone of inhibition at 4 µg/disc: ATCC 4917314, 120 h, read-out: DIZ
Streptomyces scabiei [17] = assay: Antimicrobial activity against Streptomyces scabiei ATCC 4917314 assessed as inhibition of aerial mycelial growth at 0.40 ug/disk after 5 days by paper disk method; assay type: functional; conditions: for zone of inhibition at 0.4 µg/disc: ATCC 4917314, 120 h, read-out: DIZ
[18] = tested on: Streptomyces acidiscabies; assay: Reduction in concanamycins A and B production in Streptomyces acidiscabies ATCC 4900315 at 0.45 ug/ml after 5 days relative to untreated control; assay type: functional, organism-based
[19] = tested on: Streptomyces acidiscabies; assay: Reduction in thaxtomin A production in Streptomyces acidiscabies ATCC 4900315 at 0.45 ug/ml after 5 days relative to untreated control; assay type: functional; design: scale not given: the % may be the effect or the level left
Streptomyces scabiei [20] = assay: Reduction in concanamycins A and B production in Streptomyces scabiei ATCC 4917314 at 3.6 ug/ml after 5 days relative to untreated control; assay type: functional; design: scale not given: the % may be the effect or the level left
Streptomyces scabiei [21] = assay: Reduction in thaxtomin A production in Streptomyces scabiei ATCC 4917314 at 3.6 ug/ml after 5 days relative to untreated control; assay type: functional; design: scale not given: the % may be the effect or the level left
[22] = tested on: Streptomyces acidiscabies; assay: Antimicrobial activity against Streptomyces acidiscabies ATCC 4900315 assessed as mycelial weigh change at 0.45 ug/ml after 5 days relative to untreated control; assay type: functional
Streptomyces scabiei [23] = assay: Antimicrobial activity against Streptomyces scabiei ATCC 4917314 assessed as mycelial weigh change at 3.6 ug/ml after 5 days relative to untreated control; assay type: functional
Streptomyces scabiei [24] = assay: Antimicrobial activity against Streptomyces scabiei ATCC 4917314 assessed as inhibition of growth at 0.4 ug/disk after 5 days by paper disk method; assay type: functional
Streptomyces alboniger [25] = assay: Antimicrobial activity against Streptomyces alboniger IFO 12738 assessed as inhibition of growth at 4 ug/disk after 5 days by paper disk method; assay type: functional; conditions: IFO 12738, 120 h, read-out: DIZ
[26] = tested on: Streptomyces acidiscabies; assay: Antimicrobial activity against Streptomyces acidiscabies ATCC 4900315 assessed as inhibition of growth at 0.4 ug/disk after 5 days by paper disk method; assay type: functional; conditions: ATCC 4900315, 120 h, read-out: DIZ
Streptomyces scabiei [27] = assay: Growth stimulation of Streptomyces scabiei ATCC 4917314 at 4 ug/disk after 5 days by paper disk method; assay type: functional
Streptomyces scabiei [28] = assay: Growth stimulation of Streptomyces scabiei ATCC 4917314 at 0.4 ug/disk after 5 days by paper disk method; assay type: functional; conditions: ATCC 4917314, 120 h, read-out: DIZ

Structure (SMILES) | diameter of the inhibition zone (DIZ) (Streptomyces alboniger [6]) | diameter of the inhibition zone (DIZ) (Streptomyces alboniger [7]) | diameter of the inhibition zone (DIZ) (Streptomyces alboniger [8]) | zone of inhibition at 4 µg/disc [10] | zone of inhibition at 0.4 µg/disc [11] | zone of inhibition at 4 µg/disc [13] | zone of inhibition at 0.04 µg/disc (Streptomyces scabiei [14]) | zone of inhibition at 4 µg/disc (Streptomyces scabiei [15]) | zone of inhibition at 4 µg/disc (Streptomyces scabiei [16]) | zone of inhibition at 0.4 µg/disc (Streptomyces scabiei [17]) | diameter of the inhibition zone (DIZ) [12] | diameter of the inhibition zone (DIZ) [11] | diameter of the inhibition zone (DIZ) [13] | diameter of the inhibition zone (DIZ) (Streptomyces scabiei [14]) | diameter of the inhibition zone (DIZ) (Streptomyces scabiei [16]) | diameter of the inhibition zone (DIZ) (Streptomyces scabiei [17]) | further results
CN(C)[C@@H]1C(O)=C(C(N)=O)C(=O)[C@@]2(O)C(O)=C3C(=O)c4c(O)ccc(Cl)c4[C@@](C)(O)[C@H]3C[C@@H]12 [CHLORTETRACYCLINE] | inactive | inactive | inactive | 16 mm | 19 mm | 35 mm | 11 mm | 19 mm | 27 mm | 20 mm |  |  |  |  |  |  | Activity [1]: Below limit of detection; Activity [2]: <10%; Activity (Streptomyces scabiei [3]): 0.1%; Activity (Streptomyces scabiei [4]): 0.6%; Activity (Streptomyces scabiei [5]): 2.1%; Activity [9]: 6.8%; zone of inhibition at 0.04 µg/disc ([12]; ATCC 4900315, 120 h, read-out: DIZ): 11 mm
CN[C@@H]1[C@H](O)[C@H](NC)[C@H]2O[C@@]3(O)C(=O)C[C@@H](C)O[C@H]3O[C@@H]2[C@H]1O [SPECTINOMYCIN] | inactive | inactive |  |  | 20 mm | 31 mm | 27 mm |  | 19 mm | 11 mm | inactive |  |  |  |  |  | Activity [18]: Below limit of detection; Activity [19]: 59%; Activity (Streptomyces scabiei [20]): 1.1%; Activity (Streptomyces scabiei [21]): 0.8%; Activity [22]: 8.31%; Activity (Streptomyces scabiei [23]): 5.01%; zone of inhibition at 4 µg/disc (Streptomyces alboniger [8]; IFO 12738, 120 h, read-out: DIZ): 35 mm; diameter of the inhibition zone (DIZ) (Streptomyces scabiei [24]): inactive
NC[C@H]1O[C@H](O[C@H]2[C@H](O)[C@@H](O[C@H]3O[C@H](CO)[C@@H](O)[C@H](N)[C@H]3O)[C@H](N)C[C@@H]2N)[C@H](O)[C@@H](O)[C@@H]1O [KANAMYCIN] | inactive | inactive | inactive | 18 mm |  |  |  | 13 mm | 18 mm | 10 mm | inactive | inactive | inactive | inactive |  |  | zone of inhibition at 4 µg/disc (Streptomyces alboniger [25]): 14 mm; zone of inhibition at 0.4 µg/disc [26]: 12 mm
CO/N=C(\C(=O)N[C@@H]1C(=O)N2C(C(=O)O)=C(COC(C)=O)CS[C@H]12)c1csc(N)n1 [CEFOTAXIME] | inactive | inactive | inactive |  |  | 15 mm |  |  |  |  | inactive | inactive |  | inactive | inactive | inactive | zone of inhibition at 4 µg/disc (Streptomyces scabiei [27]; Streptomyces scabiei, ATCC 4917314, 120 h, read-out: DIZ): 22 mm
N[C@@H]1CONC1=O [CYCLOSERINE] | inactive | inactive | inactive |  |  |  |  |  |  |  | inactive | inactive | inactive | inactive | inactive | inactive | zone of inhibition at 0.4 µg/disc (Streptomyces scabiei [28]): 24 mm; Activity (Streptomyces scabiei [27]): 44 mm
